{"source": "patent US9709557B2", "about": "“Anthraquinone based near IR emitting compounds and uses thereof” (LIFE TECHNOLOGIES CORPORATION, priority 2008, dated 2017)", "key": {"Live Jurkat cells [1]": {"system": "Live Jurkat cells", "assay": "Comparison of DNA stains on cell viability (Example 44)", "format": "cell-based", "details": "human, 72 h, 5 μM", "protocol": "Live Jurkat cells are suspended at 5×10^5 cells/ml in complete RPMI media with 10% FBS. Four aliquots of 10 ml each of the cell suspension are made. A final concentration of 5 μM Hoechst 33342 (Invitrogen Corporation) is added to one aliquot, a final concentration of 5 μM DRAQ5 (Biostatus Limited, UK) is added to one aliquot, a final concentration of 5 μM Compound 9 is added to one aliquot, and one aliquot remains untreated as a control. All four aliquots are placed in a 37° C. waterbath for 30 minutes in protected from light. After the incubation, all cell suspensions are centrifuged, the cells are pelleted and the supernatant discarded. To each aliquot, 5 ml media is added. Four culture flasks are prepared by adding 35 ml media to each. One 5 ml aliquot of cells is added to one flask for each on the four cell suspensions aliquots. The flasks are placed in a 37° C. incubator with 5% CO2 in the dark for 72 hours. Each flask of cells is then gently mixed and cell suspension is removed for testing. The cell concentration and image is performed using the Cellometer instrument from Nexcelom. Percentage and absolute cell counts of live and dead cells for each treatment are determined using the LIVE/DEAD Viability/Cytotoxicity Kit (Invitrogen Corporation, Carlsbad, Calif.) with COUNTBRIGHT Absolute Counting Beads (Invitrogen Corporation). This involves adding one ml cell suspension to a 12×75 mm test tube and adding 2 μl of a 50 μM calcein AM solution to identify living cells and 4 μl of a 2 mM ethidium homodimer-1 solution to identify dead cells. The cell suspension is mixed and incubated for 20 minutes at room temperature protected from light. After the end of the incubation, 50 μl of well mixed COUNTBRIGHT absolute counting beads are added to each test tube. Each sample is run through the Becton Dickinson (BD) LSRII Flow Cytometer. Forward Scatter (FS) versus Side Scatter (SS) dual parameter plot is used to gate main cell population, and a separate gate is made around the bead population. Fluorescence is collected using 488 nm excitation laser with 530/30 bandpass and 610/20 bandpass emission filters. Markers on a dual parameter plot of calcein fluorescence versus ethidium homodimer-1 fluorescence is used to obtain percent of cells which are living and dead, as well as number of cell events recorded. By using the COUNTBRIGHT absolute counting beads assay, the absolute number of living and dead cells is calculated by using the equation: A/B×C/D=concentration of cells/μL (A=number of cell events, B=number of bead events, C=assigned bead count, D=volume of the sample in μl)."}, "Live Jurkat cells [2]": {"system": "Live Jurkat cells", "assay": "DNA staining of live cells and DNA content cell cycle analysis using flow cytometry (Example 36)", "format": "cell-based, human", "details": "for G2/G1 ratio: 30 min", "protocol": "Live Jurkat cells are suspended at 5×10^5 cells/ml in each RPMI media with 10% Fetal Bovine Serum (FBS) and Hanks Balanced Salt Solution (HBSS). A compound (e.g., Compound 9 or a salt thereof) is added to each of one mL cell suspensions at concentrations 1 μM, 5 μM, 10 μM, and 20 μM, and then incubated at 37° C. or room temperature for 30 minutes while protected from light. Cells are run through a Becton Dickinson (BD) LSRII Flow Cytometer. Forward Scatter (FS) versus Side Scatter (SS) dual parameter plot is used to gate main cell population. Fluorescence is collected using three lasers: 488 nm excitation laser with 670/14, 720/20 and 787/42 bandpass emission filter, 532 nm excitation laser with 585/42 and 780/60 bandpass emission filters, and 633 nm excitation laser with 695/40, and 787/42 bandpass emission filters. Collection of at least 10,000 events at flow rate of ˜200 events/second. The data is further analyzed using MODFIT LT Flow Cytometry Modeling Software from Verity Software House, Inc. to evaluate the ratio of G2/G1 and the % CV of G1 phase.\nDNA content analysis in living cells is expected to produce variable results. Depending on the cell type, the % CV of the mean DNA content of a uniform cell population may vary from between 5%-10%. Although there is no formal consensus regarding the acceptable maximal CV value for the mean DNA content of the G0G1 phase, the % CV of normal diploid cells in a histogram generally is <8%. The CV of a tumor may be higher due to the presence of multiple tumor subpopulations. However, tumor CVs of <8% are recommended for useful S-Phase determinations (Cytometry, Vol. 14 (5), 1993, page 474).\nLinearity is the observed ratio between the DNA Diploid G2M and G0G1 positions. The ratio normally is about two, but this ratio may deviate from the ideal value even under normal conditions (see, MODFIT LT User Guide, June 2000)."}, "Live Jurkat cells [3]": {"system": "Live Jurkat cells", "assay": "DNA staining of live cells, 15 minute incubation (Example 46)", "format": "cell-based, human", "details": "2.5, 5, 10 μM, 37° C., 15 min; 488 and 633 nm lasers, 695/40", "protocol": "Compound 9 is diluted as a 5 mM concentration in DMSO. Live Jurkat cells are suspended at 5×10^5 cells/ml in RPMI media with 10% Fetal Bovine Serum (FBS). Compound 9 was is added to each of one mL cell suspensions at concentrations 2.5 μM, 5 μM, 10 μM and then incubated at 37° C. for 15 minutes while protected from light. Cells are run through the Becton Dickinson (BD) LSRII Flow Cytometer. Forward Scatter (FS) vs Side Scatter (SS) dual parameter plot is used to gate main cell population. Fluorescence is collected using two lasers: the 488 nm excitation laser with 695/40 bandpass emission filter, and using the 633 nm excitation laser with 695/40 bandpass emission filter. Collection of 10,000 events gated on the main population of cells was performed using a flow rate of ˜200 events/second. […] A typical DNA cell cycle histogram was generated, showing G0/G1 phase, S phase, and G2/M phase, as obtained on the live cell gate, with all concentrations of the compound."}}, "data": [{"smiles": "CN(C)CCNC(=O)CNc1ccc(O)c2c1C(=O)c1c(O)ccc(N)c1C2=O", "note": "[Compound 9]", "values": [{"measurement": "% Dead Cells", "setting": "Live Jurkat cells [1]", "result": 26.4, "unit": "%"}, {"measurement": "% Living Cells", "setting": "Live Jurkat cells [1]", "result": 71.2, "unit": "%"}, {"measurement": "Cell Count (Cellometer)", "setting": "Live Jurkat cells [1]", "result": "2.54 × 10^5 cells/mL"}, {"measurement": "Cell Count (Flow Cytommetry)", "setting": "Live Jurkat cells [1]", "result": "0.7 × 10^5 cells/mL"}, {"measurement": "G2/G1 ratio", "setting": "Live Jurkat cells [2]; 1 μM, RPMI media, 37° C.", "result": 1.91}, {"measurement": "G2/G1 ratio", "setting": "Live Jurkat cells [2]; 5 μM, RPMI media, 37° C.", "result": 1.83}, {"measurement": "G2/G1 ratio", "setting": "Live Jurkat cells [2]; 10 μM, HBSS buffer, 37° C.", "result": 1.84}, {"measurement": "G2/G1 ratio", "setting": "Live Jurkat cells [2]; 10 μM, HBSS buffer, room temperature", "result": 1.83}, {"measurement": "G2/G1 ratio", "setting": "Live Jurkat cells [2]; 10 μM, RPMI media, 37° C.", "result": 1.82}, {"measurement": "G2/G1 ratio", "setting": "Live Jurkat cells [2]; 10 μM, RPMI media, room temperature", "result": 1.82}, {"measurement": "G2/G1 ratio", "setting": "Live Jurkat cells [2]; 20 μM, RPMI media, 37° C.", "result": 1.87}, {"measurement": "% CV of G1-phase", "setting": "Live Jurkat cells [2]; all concentrations (1-20 μM), media and HBSS, 37° C. and room temperature, MODFIT", "result": "< 8", "unit": "%"}, {"measurement": "G2/G1 ratios (linearity)", "setting": "Live Jurkat cells [2]; all concentrations, MODFIT analysis", "result": "indicating linearity of staining"}, {"measurement": "DNA staining of live cells", "setting": "Live Jurkat cells [2]; excited by 488, 532 and 633 nm lasers", "result": "effective stain for DNA"}, {"measurement": "DNA content cell cycle staining", "setting": "Live Jurkat cells [3]", "result": "demonstrated staining for DNA content cell cycle"}]}]}
